The test system of the assay is P388 leukemia ip, CD2F1 mice, survival T/C. Nature of the assay: NCI In Vivo Anticancer Drug Screen. Data for tumor model P388 Leukemia (intraperitoneal) in CD2F1 (CDF1) mice. As to conditions: endpoint: median survival time, higher = longer survival. In short, it runs like this: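 Mice carrying the transplanted tumor received test compound or vehicle. Survival was recorded in each group, and the value is the treated-group measurement divided by that of the vehicle-treated control group.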

Where [1] appears, read: dose: 25.0 mg/kg/injection, schedule: Q01DX005 (ip), vehicle: saline with Tween-80.
The mark [2] stands for this setting: dose: 50.0 mg/kg/injection, schedule: Q01DX005 (ip), vehicle: saline with Tween-80.
Setting [3] is: dose: 100.0 mg/kg/injection, schedule: Q01DX005 (ip), vehicle: saline with Tween-80.
Where [4] appears, read: dose: 50.0 mg/kg/injection, schedule: Q01DX005 (ip), vehicle: saline.
The mark [5] stands for this setting: dose: 100.0 mg/kg/injection, schedule: Q01DX005 (ip), vehicle: saline.
The mark [6] stands for this setting: dose: 200.0 mg/kg/injection, schedule: Q01DX005 (ip), vehicle: saline.
Setting [7] is: dose: 50.0 mg/kg/injection, schedule: Q01DX005 (ip), vehicle: Klucel (hydroxypropylcellulose) (HPC).
Setting [8] is: dose: 100.0 mg/kg/injection, schedule: Q01DX005 (ip), vehicle: Klucel (hydroxypropylcellulose) (HPC).
Where [9] appears, read: dose: 50.0 mg/kg/injection, schedule: Q04DX003 (ip), vehicle: saline with Tween-80.
Where [10] appears, read: dose: 100.0 mg/kg/injection, schedule: Q04DX003 (ip), vehicle: saline with Tween-80.
The mark [11] stands for this setting: dose: 200.0 mg/kg/injection, schedule: Q01DX005 (ip), vehicle: saline with Tween-80.
Where [12] appears, read: dose: 200.0 mg/kg/injection, schedule: Q01DX005 (ip), vehicle: Klucel (hydroxypropylcellulose) (HPC).

This note sets out measurements from PubChem BioAssay AID330 (DTP/NCI, 2004).

“And” between values parts separate entries of the source, which are not always exact repeats. Equal values may be shown once. Inconclusive results and toxic doses are left out.

For the compound `CC(C)=CCC/C(C)=C/COc1cc(O)c2c(O)c3c(cc2c1)CC(C)(O)CC3=O` (stereo unspecified), the T/C reads like this: (dose: 6.25 mg/kg/injection, schedule: Q01DX009 (ip), vehicle: saline + Tween-80 + alcohol) 107 % of control; (dose: 12.5 mg/kg/injection, schedule: Q01DX009 (ip), vehicle: saline + Tween-80 + alcohol) 105 % of control; (dose: 25.0 mg/kg/injection, schedule: Q01DX009 (ip), vehicle: saline + Tween-80 + alcohol) 107 % of control.

Regarding `CSc1c(C(C)(C)O)cc(C(C)(C)C)cc1C(C)(C)O`, the T/C reads like this: (dose: 50.0 mg/kg/injection, schedule: Q01DX009 (ip), vehicle: Klucel (hydroxypropylcellulose) (HPC)) 93 % of control; (dose: 100.0 mg/kg/injection, schedule: Q01DX009 (ip), vehicle: Klucel (hydroxypropylcellulose) (HPC)) 93 % of control; (dose: 200.0 mg/kg/injection, schedule: Q01DX009 (ip), vehicle: Klucel (hydroxypropylcellulose) (HPC)) 94 % of control.

`O=C1C/C(=N\O)CON1c1ccccc1`: the T/C (dose: 100.0 mg/kg/injection, schedule: Q01DX002 (ip), vehicle: Klucel (hydroxypropylcellulose) (HPC)) was 106 % of control; the T/C (dose: 200.0 mg/kg/injection, schedule: Q01DX002 (ip), vehicle: Klucel (hydroxypropylcellulose) (HPC)) was 98 % of control; the T/C (dose: 400.0 mg/kg/injection, schedule: Q01DX002 (ip), vehicle: Klucel (hydroxypropylcellulose) (HPC)) was 90 % of control.

For the compound `O=P(c1ccccc1)(c1ccccc1)c1ccccc1.[CH3][Sn]([Cl])([Cl])[c]1ccccc1`, the T/C (dose: 12.5 mg/kg/injection, schedule: Q04DX003 (ip), vehicle: saline) was 100 % of control and 118 % of control; the T/C (dose: 25.0 mg/kg/injection, schedule: Q04DX003 (ip), vehicle: saline) was 100 % of control and 104 % of control; the T/C (dose: 50.0 mg/kg/injection, schedule: Q04DX003 (ip), vehicle: saline) was 100 % of control and 101 % of control; the T/C (dose: 100.0 mg/kg/injection, schedule: Q04DX003 (ip), vehicle: saline) was 100 % of control and 110 % of control.

In the case of `O=c1c2ccccc2nnn1Cc1ccco1`, the T/C reads like this: (dose: 1.25 mg/kg/injection, schedule: Q01DX005 (ip), vehicle: saline with Tween-80) 100 % of control; (dose: 12.5 mg/kg/injection, schedule: Q01DX005 (ip), vehicle: saline with Tween-80) 92 % of control; under setting [1], 100 % of control and 90 % of control; under setting [2], 104 % of control and 90 % of control; under setting [3], 92 % of control and 93 % of control.

Take `CCOC(=O)c1c(C)c(C(C)=O)c2ccccn12`: the T/C (dose: 60.0 mg/kg/injection, schedule: Q01DX005 (ip), vehicle: saline with Tween-80) was 104 % of control; the T/C (dose: 120.0 mg/kg/injection, schedule: Q01DX005 (ip), vehicle: saline with Tween-80) is 119 % of control; the T/C (dose: 240.0 mg/kg/injection, schedule: Q01DX005 (ip), vehicle: saline with Tween-80) was 105 % of control.

Turning to `CC1(C)CC(=O)C=C(NCCO)C1`, the T/C is 96 % of control under setting [4], 91 % of control under setting [5] and 96 % of control under setting [6].

Take `CC(C)(C)NCC(O)COc1nsnc1N1CCOCC1` (stereo unspecified): the T/C (dose: 50.0 mg/kg/injection, schedule: Q01DX009 (ip), vehicle: water) is 103 % of control; the T/C (dose: 100.0 mg/kg/injection, schedule: Q01DX009 (ip), vehicle: water) was 108 % of control; the T/C (dose: 200.0 mg/kg/injection, schedule: Q01DX009 (ip), vehicle: water) was 111 % of control.

For `CCCCOc1ncnc2nc[nH]c12`, the T/C reads like this: under setting [7], 103 % of control; under setting [8], 103 % of control.

`Cc1ncc2c(=O)c3c(ccc4ccccc43)oc2n1`: the T/C under setting [9] was 96 % of control; the T/C under setting [10] was 96 % of control; the T/C (dose: 200.0 mg/kg/injection, schedule: Q04DX003 (ip), vehicle: saline with Tween-80) is 97 % of control; the T/C (dose: 400.0 mg/kg/injection, schedule: Q04DX003 (ip), vehicle: saline with Tween-80) was 103 % of control.

As for `CC(C)(C)C1=CC(=CC=C2C=CN(CCO)C=C2)C=C(C(C)(C)C)C1=O`, the T/C is, setting by setting: (dose: 7.5 mg/kg/injection, schedule: Q01DX005 (ip), vehicle: saline with Tween-80) 105 % of control; (dose: 15.0 mg/kg/injection, schedule: Q01DX005 (ip), vehicle: saline with Tween-80) 98 % of control; (dose: 30.0 mg/kg/injection, schedule: Q01DX005 (ip), vehicle: saline with Tween-80) 104 % of control.

Turning to `Cc1c(O)c(=O)ccn1CCN`, the T/C reads like this: under setting [4], 98 % of control and 102 % of control; under setting [5], 100 % of control and 109 % of control; under setting [6], 99 % of control and 104 % of control; (dose: 400.0 mg/kg/injection, schedule: Q01DX005 (ip), vehicle: saline) 91 % of control and 95 % of control.

On to `O=C(NC(=NC(=Nc1ccc([N+](=O)[O-])cc1)c1ccccc1)c1ccccc1)c1ccccc1`, for which the T/C runs as follows: (dose: 50.0 mg/kg/injection, schedule: Q01DX009 (ip), vehicle: saline with Tween-80) 93 % of control; (dose: 100.0 mg/kg/injection, schedule: Q01DX009 (ip), vehicle: saline with Tween-80) 99 % of control; (dose: 200.0 mg/kg/injection, schedule: Q01DX009 (ip), vehicle: saline with Tween-80) 90 % of control.

Take `CCN(C(=O)CCl)c1ccccc1C`: the T/C is 100 % of control under setting [9] and 100 % of control under setting [10].

`CNC(=O)OCc1c(COC(=O)NC)c2n(c1C)CS(=O)C2` (stereo unspecified): the T/C runs as follows: under setting [1], 113 % of control; under setting [2], 113 % of control; under setting [3], 121 % of control and 122 % of control; under setting [11], 113 % of control and 115 % of control.

In the case of `CCC(C1SC(=S)NC1=O)C1SC(=S)NC1=O` (stereo unspecified), the T/C by setting is: under setting [2], 92 % of control; under setting [3], 97 % of control.

As to `COc1ccc2[nH]c3c(c2c1)CCNC3CC(C)CCC=C(C)C` (stereo unspecified), the T/C runs as follows: (dose: 12.5 mg/kg/injection, schedule: Q01DX009 (ip), vehicle: saline with Tween-80) 99 % of control; (dose: 25.0 mg/kg/injection, schedule: Q01DX009 (ip), vehicle: saline with Tween-80) 98 % of control.

Turning to `O=C(O)c1ccccc1C(=O)O.[Cu+2].[NH-]CCC[NH-]`, where the note is “dose: 12.5 mg/kg/injection, schedule: Q04DX002 (ip), vehicle: saline with Tween-80”, the T/C is 115 % of control.

As to `Cc1nn(-c2ccccc2)c2c1S(=O)(=O)c1ccccc1-2`, the T/C was 91 % of control under setting [2], 89 % of control under setting [3] and 88 % of control under setting [11].

For `Cc1ccccc1-n1c(C)nc2[nH]ncc2c1=O`, the T/C was 105 % of control under setting [7], 98 % of control under setting [8] and 96 % of control under setting [12].

As to `Cc1nc2ccccc2c(=O)n1/N=C1\C(=O)N(C)c2ccccc21`, the T/C is 100 % of control (dose: 12.5 mg/kg/injection, schedule: Q01DX005 (ip), vehicle: Klucel (hydroxypropylcellulose) (HPC)); 96 % of control (dose: 25.0 mg/kg/injection, schedule: Q01DX005 (ip), vehicle: Klucel (hydroxypropylcellulose) (HPC)); 91 % of control and 96 % of control under setting [7]; 105 % of control under setting [8].

On to `COc1ccc2c(c1)C(Cc1ccc(Oc3ccc(CC4c5cc(OC)ccc5CC[N+]4(C)C)cc3)cc1)[N+](C)(C)CC2` (stereo unspecified), for which, where the note is “dose: 1.56 mg/kg/injection, schedule: Q04DX003 (ip), vehicle: water”, the T/C is 107 % of control.

For `CC1(C)C2CCC(C2)C1/C=C1/SC(=S)NC1=O` (stereo unspecified), the T/C is 99 % of control under setting [7], 100 % of control under setting [8] and 100 % of control under setting [12].

With `CC(C)C(NC(=O)C(Cl)Cl)C(=O)O` (stereo unspecified), the T/C under setting [7] is 96 % of control, the T/C under setting [8] was 94 % of control and the T/C under setting [12] was 96 % of control.
